Experiments:
[1] = test system: splenic cells of Lewis rats; experiment: Test 2: Determination of T-cell growth inhibitor activity (T lymphocyte blastogenesis, Concanavalin A, AlamarBlue); assay type: cell-based; details: Lewis rat splenic cells, 72 hours, AlamarBlue Assay, read-out: Test 2: T-cell growth inhibitory activity IC50
Protocol: Test 2: Determination of T-Cell Growth Inhibitor Activity
The T lymphocyte blastogenesis test was performed in microtiter plates with each well containing 1.5×10^5 splenic cells of Lewis rats in 0.1 mL RPMI-1640 medium supplemented with 10% fetal bovine serum-(FBS), […] 2-mercaptoethanol, penicilln (100 units/mL) and streptomycin (100 μg/mL), to which Concanavalin A ([…]) was added. The cells were incubated at 37° C. in a humidified atmosphere of 5% CO2 for 72 hours. After the culture period, suppressive activities of the test compounds in T lymphocyte blastogenesis were quantified by AlamarBlue (trademark) Assay. The test samples were dissolved in DMSO and further diluted with RPMI-1640 medium and added to the culture. The activities of the test compounds were expressed as IC50.

[2] = molecular target: human histone deacetylase; experiment: Test 1: Determination of histone deacetylase inhibitor activity ([3H]acetyl histone deacetylation); assay type: biochemical; details: human histone deacetylase partially purified from Jurkat cells; [3H]acetyl-labeled histones, 25° C., 30 minutes; read-out: Test 1: HDAC inhibitory activity IC50
Protocol: Test 1: Determination of Histone Deacetylase Inhibitor Activity
The partial purification of human histone deacetylase, the preparation of [^3H] acetyl histones, and the assay for histone deacetylase activity were performed basically according to the method as proposed by Yoshida et al. as follows.
Partial Purification of Human Histone Deacetylase
The human histone deacetylase was partially purified from human T cell leukemia Jurkat cells. Jurkat cells (5×10^8 cells) were suspended in 40 mL of the HDA buffer consisting of 15 mM potassium phosphate, pH 7.5, 5% glycerol and 0.2 mM EDTA. After homogenization, nuclei were collected by centrifugation (35,000×g, 10 min) and homogenized in 20 mL of the same buffer supplemented with 1 M (NH4)2SO4. The viscous homogenate was sonicated and clarified by centrifugation (35,000×g, 10 min), and the deacetylase was precipitated by raising the concentration of (NH4)2SO4 to 3.5 M. The precipitated protein was dissolved in 10 mL of the HDA buffer and dialyzed against 4 liters of the same buffer. The dialyzate was then loaded onto a DEAE-cellulose (Whatman DE52) column (25×85 mm) equilibrated with the same buffer and eluted with 300 mL of a linear gradient (0–0.6 M) of NaCl. A single peak of histone deacetylase activity appeared between 0.3 and 0.4 M NaCl.
Preparation of [^3H] Acetyl Histone
To obtain [^3H] acetyl-labeled histone as the substrate for the histone deacetylase assay, 1×10^8 cells of Jurkat in 20 mL of RPMI-1640 medium (supplemented with 10% FBS, penicillin (50 units/mL) and streptomycin (50 μg/mL)) were incubated with 300 MBq [^3H] sodium acetate in the presence of 5 mM sodium butyrate for 30 minutes in 5% CO2-95% air atmosphere at 37° C. in a 75 cm^2 flask, harvested into a centrifuge tube (50 mL), collected by centrifugation at 1000 rpm for 10 minutes, and washed once with phosphate-buffered saline. The washed cells were suspended in 15 mL of ice-cold lysis buffer (10 mM Tris-HCl, 50 mM sodium bisulfite, 1% Triton X-100, 10 mM MgCl2, 8.6% sucrose, pH 6.5). After Dounce homogenization (30 stroke), the nuclei were collected by centrifugation at 1000 rpm for 10 minutes, washed 3 times with 15 mL of the lysis buffer, and once with 15 mL of ice-cooled washing buffer (10 mM Tris-HCl, 13 mM EDTA, pH 7.4) successively. […]
For the standard assay, 10 μl of [^3H] acetyl-labeled histones were added to 90 μl of the enzyme fraction, and the mixture was incubated at 25° C. for 30 minutes. […] The released [^3H] acetic acid was extracted with 1 mL of ethyl acetate, and 0.9 mL of the solvent layer was taken into 10 mL of toluene scintillation solution for determination of radioactivity.

## O=C(/C=C/c1cccc(Cc2nc3ccccc3[nH]2)c1)NO [Compound E6]
[1]
  IC50: 0.15 µM
[2]
  IC50: 0.15 µM

## O=C(/C=C/c1ccc(CCc2nc3ccccc3[nH]2)cc1)NO [Compound E3]
[1]
  IC50: 0.16 µM
[2]
  IC50: 0.14 µM

## O=C(/C=C/c1ccc(C(Cc2ccccc2)c2nc3ccccc3n2Cc2ccccc2)cc1)NO (centres unmarked) [Compound E5]
[1]
  IC50: 0.31 µM
[2]
  IC50: 0.096 µM

## O=C(/C=C/c1ccc(Cc2nc3ccccc3[nH]2)cc1)NO [Compound E1]
[1]
  IC50: 0.069 µM
[2]
  IC50: 0.028 µM

Source: patent US7135493B2, “HDAC inhibitor” (Astellas Pharma Inc., priority 2003, dated 2006)
